# Data from ChEMBL document CHEMBL1629642, “In vitro efficacy of ST246 against smallpox and monkeypox” (Antimicrob Agents Chemother, 2009).
# Calls of active or inactive are those of the source. The rule behind the calls is not given here.
# Legend:
# [1] = tested on: Variola virus; assay: Antiviral activity against Variola virus BSH74-sol infected in african green monkey BSC-40 cells at 0.05 to 0.5 uM by IHC staining-based comet tail reduction assay; assay type: functional, organism-based
# [2] = tested on: Monkeypox virus; assay: Antiviral activity against Monkeypox virus V77-I-823 infected in african green monkey BSC-40 cells at 0.05 to 0.5 uM by IHC staining-based comet tail reduction assay; assay type: functional, organism-based
# [3] = tested on: Variola virus; assay: Antiviral activity against Variola virus BRZ66-39 infected in african green monkey BSC-40 cells at 0.015 uM by IHC staining-based comet tail reduction assay; assay type: functional, organism-based
# [4] = tested on: Variola virus; assay: Antiviral activity against Variola virus NEP73-175 infected in african green monkey BSC-40 cells at 0.015 uM by IHC staining-based comet tail reduction assay; assay type: functional, organism-based
# [5] = tested on: Variola virus; assay: Antiviral activity against Variola virus SOM77-ali infected in african green monkey BSC-40 cells at 0.015 uM by IHC staining-based comet tail reduction assay; assay type: functional, organism-based
# [6] = tested on: Monkeypox virus; assay: Antiviral activity against Monkeypox virus V78-I-3945 infected in african green monkey BSC-40 cells at 0.015 uM by IHC staining-based comet tail reduction assay; assay type: functional, organism-based
# [7] = tested on: Monkeypox virus; assay: Antiviral activity against Monkeypox virus V81-I-179 infected in african green monkey BSC-40 cells at 0.015 uM by IHC staining-based comet tail reduction assay; assay type: functional, organism-based
# [8] = tested on: Monkeypox virus; assay: Antiviral activity against Monkeypox virus V77-I-823 infected in african green monkey BSC-40 cells at 0.015 uM by IHC staining-based comet tail reduction assay; assay type: functional, organism-based
# [9] = tested on: Monkeypox virus; assay: Antiviral activity against Monkeypox virus V78-I-3945 infected in african green monkey BSC-40 cells assessed as reduction in viral plaque formation at 0.015 uM uM by IHC staining-based plaque reduction assay; assay type: functional
# [10] = tested on: Variola virus; assay: Antiviral activity against Variola virus SOM77-ali infected in african green monkey BSC-40 cells at 0.005 uM by IHC staining-based comet tail reduction assay; assay type: functional, organism-based
# [11] = tested on: Monkeypox virus; assay: Antiviral activity against Monkeypox virus V81-I-179 infected in african green monkey BSC-40 cells at 0.005 uM by IHC staining-based comet tail reduction assay; assay type: functional, organism-based
# [12] = tested on: Variola virus; assay: Antiviral activity against Variola virus BRZ66-39 infected in african green monkey BSC-40 cells at 0.005 uM uM by IHC staining-based plaque reduction assay; assay type: functional, organism-based
# [13] = tested on: Variola virus; assay: Antiviral activity against Variola virus SUD47-juba infected in african green monkey BSC-40 cells at 0.005 uM uM by IHC staining-based plaque reduction assay; assay type: functional, organism-based
# [14] = tested on: Monkeypox virus; assay: Antiviral activity against Monkeypox virus V1979-I-005 infected in african green monkey BSC-40 cells at 0.005 uM by IHC staining-based comet tail reduction assay; assay type: functional, organism-based
# [15] = tested on: Variola virus; assay: Antiviral activity against Variola virus BRZ66-39 infected in african green monkey BSC-40 cells at 0.05 to 5 uM assessed as reduction in virus-induced cytopathic effect; assay type: functional, organism-based
# [16] = tested on: Monkeypox virus; assay: Antiviral activity against Monkeypox virus V81-I-179 infected in african green monkey BSC-40 cells at 0.005 uM uM by IHC staining-based plaque reduction assay; assay type: functional, organism-based
# [17] = tested on: Monkeypox virus; assay: Antiviral activity against Monkeypox virus V77-I-823 infected in african green monkey BSC-40 cells at 0.005 uM uM by IHC staining-based plaque reduction assay; assay type: functional, organism-based
# [18] = tested on: Monkeypox virus; assay: Antiviral activity against Monkeypox virus V1979-I-005 infected in african green monkey BSC-40 cells at 0.005 uM uM by IHC staining-based plaque reduction assay; assay type: functional, organism-based
# [19] = tested on: Variola virus; assay: Antiviral activity against Variola virus BRZ66-39 infected in african green monkey BSC-40 cells at 0.05 to 0.5 uM by IHC staining-based comet tail reduction assay; assay type: functional, organism-based
# [20] = tested on: Variola virus; assay: Antiviral activity against Variola virus NEP73-175 infected in african green monkey BSC-40 cells at 0.05 to 5 uM assessed as reduction in virus-induced cytopathic effect; assay type: functional, organism-based
# [21] = tested on: Monkeypox virus; assay: Antiviral activity against Monkeypox virus V78-I-3945 infected in african green monkey BSC-40 cells assessed as reduction in virus-induced cytopathic effect at 0.05 to 5 uM; assay type: functional, organism-based
# [22] = tested on: Monkeypox virus; assay: Antiviral activity against Monkeypox virus V77-I-823 infected in african green monkey BSC-40 cells assessed as reduction in virus-induced cytopathic effect at 0.05 to 5 uM; assay type: functional, organism-based
# [23] = tested on: Monkeypox virus; assay: Antiviral activity against Monkeypox virus V1979-I-005 infected in african green monkey BSC-40 cells assessed as reduction in virus-induced cytopathic effect at 0.05 to 5 uM; assay type: functional, organism-based
# [24] = tested on: Variola virus; assay: Antiviral activity against Variola virus SLN68-258 infected in african green monkey BSC-40 cells at 0.015 uM assessed as reduction in virus-induced cytopathic effect; assay type: functional, organism-based
# [25] = tested on: Variola virus; assay: Antiviral activity against Variola virus SUD47-juba infected in african green monkey BSC-40 cells at 0.015 uM assessed as reduction in virus-induced cytopathic effect; assay type: functional, organism-based
# [26] = tested on: Variola virus; assay: Antiviral activity against Variola virus BRZ66-39 infected in african green monkey BSC-40 cells at 0.005 uM assessed as reduction in virus-induced cytopathic effect; assay type: functional, organism-based
# [27] = tested on: Variola virus; assay: Antiviral activity against Variola virus SLN68-258 infected in african green monkey BSC-40 cells at 0.005 uM assessed as reduction in virus-induced cytopathic effect; assay type: functional, organism-based
# [28] = tested on: Variola virus; assay: Antiviral activity against Variola virus SOM77-ali infected in african green monkey BSC-40 cells at 0.005 uM assessed as reduction in virus-induced cytopathic effect; assay type: functional, organism-based
# [29] = tested on: Monkeypox virus; assay: Antiviral activity against Monkeypox virus V77-I-823 infected in african green monkey BSC-40 cells assessed as reduction in virus-induced cytopathic effect at 0.005 uM; assay type: functional, organism-based
# [30] = tested on: Monkeypox virus; assay: Antiviral activity against Monkeypox virus V1979-I-005 infected in african green monkey BSC-40 cells assessed as reduction in virus-induced cytopathic effect at 0.005 uM; assay type: functional, organism-based
# [31] = tested on: Monkeypox virus; assay: Antiviral activity against Monkeypox virus infected in african green monkey vero cells assessed as reduction in virus-induced cytopathic effect; assay type: functional, organism-based
# [32] = tested on: Ectromelia virus; assay: Antiviral activity against Ectromelia virus infected in african green monkey Vero cells assessed as reduction in virus-induced cytopathic effect; assay type: functional, cell-based
# [33] = tested on: Monkeypox virus; assay: Antiviral activity against Monkeypox virus 2003-USA-039 infected in african green monkey BSC-40 cells assessed as reduction in virus-induced cytopathic effect; assay type: functional, organism-based; conditions: 2003-USA-039, BSC-40
# [34] = tested on: Variola virus; assay: Antiviral activity against Variola virus BRZ66-39 infected in african green monkey BSC-40 cells at 0.05 to 0.5 uM by IHC staining-based plaque reduction assay; assay type: functional, organism-based
# [35] = tested on: Variola virus; assay: Antiviral activity against Variola virus SLN68-258 infected in african green monkey BSC-40 cells assessed as reduction in viral plaque formation at 0.015 uM uM by IHC staining-based plaque reduction assay; assay type: functional
# [36] = tested on: Variola virus; assay: microbe, parasite or virus in culture; conditions: SUD47-juba, BSC-40
# [37] = tested on: Variola virus; assay: microbe, parasite or virus in culture; conditions: BSH74-sol, BSC-40
# [38] = tested on: Variola virus; assay: microbe, parasite or virus in culture; conditions: SOM77-ali, BSC-40
smiles,measurement,setting,value
O=C(NN1C(=O)[C@@H]2[C@@H]3C=C[C@@H]([C@H]4C[C@@H]34)[C@@H]2C1=O)c1ccc(C(F)(F)F)cc1 [TECOVIRIMAT],Activity,[1],Active
same,Activity,[2],Active
same,Activity,[3],Active
same,Activity,[4],Active
same,Activity,[5],Active
same,Activity,[6],Active
same,Activity,[7],Active
same,Activity,[8],Active
same,inhibition (INH),[9],50%
same,Activity,[10],inactive
same,Activity,[11],inactive
same,Activity,[12],inactive
same,Activity,[13],inactive
same,Activity,[14],inactive
same,Activity,[15],Active
same,Activity,[16],inactive
same,Activity,[17],inactive
same,Activity,[18],inactive
same,Activity,[19],Active
same,Activity,[20],Active
same,Activity,[21],Active
same,Activity,[22],Active
same,Activity,[23],Active
same,Activity,[24],Active
same,Activity,[25],Active
same,Activity,[26],inactive
same,Activity,[27],inactive
same,Activity,[28],inactive
same,Activity,[29],inactive
same,Activity,[30],inactive
same,Activity,[31],Active
same,Activity,[32],Active
same,EC50,[33],36 nM
same,Activity,[34],Active
same,inhibition (INH),[35],50%
same,EC50,[36],19 nM
same,EC50,[37],28 nM
same,EC50,[38],28 nM
